Data from US4372975A, “Substituted 2-benzoyl-4-chloroglycinanilide derivatives, a process for their production, and their use as medicaments” (Pierre Fabre SA, priority 1977, dated 1983).
Counter-ions that a name gives are not always drawn. Like-named read-outs stand apart in the source and are kept apart here.

What was measured:
[1] = tested on: pentamethylene tetrazole-induced tonic spasms; assay: Anti-pentamethylene tetrazole activity; format: in vivo, male mice of the Swiss strain; details: for ED50: Mus musculus; for Activity antipentetrazol (VO), at 10 mg: 10 mg (mg/kg)
Method: This test is carried out on a group of 10 male mice of the Swiss strain. 15 minutes after the subcutaneous injection of 125 mg/kg of pentamethylene tetrazole, the mice have tonic spasms of which the outcome is fatal.
For the test, the compound is administered orally 60 minutes before the injection of pentamethylene tetrazole. The animals are observed for 2 hours after administration of the pentamethylene tetrazole. In some particular cases, the tests were confirmed by intraperitoneal administration. The results are expressed by the effective dose DE50 (Goodman et Col.--J. Pharmacol. 108, 1953).
As Japanese Pat. No. 148,340 has been cited in copending application Ser. No. 916,651, filed June 19, 1978, comparisons between compounds of this closest prior art and the compounds of the invention were undertaken in the form of a controlled study.
The major consideration surrounded the similarity in the compounds, particularly in the substitution at the R position. The study compared ten compounds of the invention, which differed from the Japanese prior art only in that the compounds of the invention are alkylated at the R position while the prior art compounds are all hydrogenated at that position.
The compounds were tested for anti-pentamethylene tetrazole activity, the test described on p.

Solubility = format: physicochemical; details: for solubility / solubility in water (in words): in water; for solubility in ethanol: in ethanol at 95° GL
[2] = Toxicity test (LD50, Miller and Tainter); details: mouse, in vivo, mice
Method: The compounds according to the invention were subjected to toxicity tests. It was tested in batches of 10 mice by oral, intraperitoneal and, in some cases, intravenous administration and was calculated in accordance with Miller and Tainter's method (Proc. Soc. exper. Biol. Med., 1944, 57, 261).

male Swiss mice = assay: Rota-Rod test; format: in vivo; details: falls off rod in less than 2 minutes
Method: This test is carried out on male Swiss mice. The mouse is placed on a 3 cm diameter wooden rod rotating at 5 revolutions per minute. The mice which succeed in remaining on the rod for at least 3 minutes in successive tests are selected and gathered into groups of 10 for the test of each dose. If the mouse falls off the rod in less than 2 minutes, the tested compound is considered to be effective. The results are expressed by the effective dose DE50 according to N. W. Dunham and T. S. Miva--J. amer. pharm. Ass., 1957, 46, 208.

[3] = oral, 60 min before 125 mg/kg s.c. pentamethylene tetrazole, male Swiss mice, read-out: anti-pentamethylene tetrazole activity DE50 P.O.
[4] = ip, intraperitoneal, read-out: DL50 I.P.
[5] = po, prior art comparison, VO, dose giving 50% inhibition, read-out: Activity antipentetrazol (VO), 50% inhibition

Row | Structure (SMILES) | ED50 [1, 3] [mg/kg] | solubility (Solubility) [mg/mL] | LD50 [2, 4] [mg/kg] | LD50 ([2]; oral, read-out: DL50 oral) [mg/kg] | other results
1 | CNC1=Nc2ccc(Cl)cc2C(c2ccccc2)=[N+]([O-])C1 [chlordiazepoxide, reference compound] | 5 |  |  |  | 
2 | CN(C(=O)CNC1CC1)c1ccc(Cl)cc1C(=O)c1ccccc1 [Example 10, N-Methyl-N'-cyclopropyl-(2-benzoyl-4-chloro)-glycinanilide hydrochloride] | 0.8 | 13 |  |  | 
3 | CN1CCN(CC(=O)N(C)c2ccc(Cl)cc2C(=O)c2ccccc2)CC1 [Example 22, N-Methyl-4'-methyl-2-piperazino-(2-benzoyl-4-chloro)-acetanilide] |  |  | 500 | 1000 | solubility in dimethyl formamide (Solubility): 5%; solubility in ethanol (Solubility): 5%; solubility in water (in words) (Solubility): insoluble
4 | CN1C(=O)CN=C(c2ccccc2)c2cc(Cl)ccc21 [diazepam, reference compound] | 1 |  |  |  | 
5 | CN(C(=O)CN(CCO)CCO)c1ccc(Cl)cc1C(=O)c1ccccc1 [Example 16, N-Methyl-N',N'-bis-(2'-hydroxyethyl)-(2-benzoyl-4-chloro)-glycinanilide hydrochloride] | 3.4 | 50 | > 500 | > 1000 | 
6 | CN(CCO)CC(=O)N(C)c1ccc(Cl)cc1C(=O)c1ccccc1 [Example 14, N,N'-dimethyl-N'-(2'-hydroxyethyl)-(2-benzoyl-4-chloro)-glycinanilide] | 1.7 |  | 350 | 1200 | ED50 ([1]; ip, intraperitoneal, 125 mg/kg s.c. pentamethylene tetrazole, male Swiss mice, read-out: anti-pentamethylene tetrazole activity DE50 I.P.): 1.5 mg/kg; LD50 ([2]; intravenous, read-out: DL50 I.V.): 55 mg/kg; Rota Rod DE50 V.O. (male Swiss mice): 66; solubility in dimethyl formamide (Solubility): 20%; solubility in ethanol (Solubility): 20%; solubility in water (in words) (Solubility): insoluble
7 | C#CC(C)(C)NCC(=O)Nc1ccc(Cl)cc1C(=O)c1ccccc1 [reference compound] |  |  |  |  | Activity antipentetrazol (VO), at 10 mg ([1]; prior art comparison, VO): inactive
8 | CCN(CCO)CC(=O)N(C)c1ccc(Cl)cc1C(=O)c1ccccc1 [Example 15, N-Methyl-N'-ethyl-N'-(2'-hydroxyethyl)-(2-benzoyl-4-chloro)-glycinanilide] | 2.9 |  | 150 | 550 | solubility in dimethyl formamide (Solubility): 30%; solubility in ethanol (Solubility): 10%; solubility in water (in words) (Solubility): insoluble
9 | CN(C)CC(=O)N(C)c1ccc(Cl)cc1C(=O)c1ccccc1 [Example 4, N,N',N'-Trimethyl-(2-benzoyl-4-chloro)-glycinanilide] |  |  |  |  | ED50 [1, 5]: 1.7 mg/kg; solubility in dimethyl formamide (Solubility): 20%; solubility in ethanol (Solubility): 20%; solubility in water (in words) (Solubility): insoluble
10 | C#CC(C)(C)NCC(=O)N(C)c1ccc(Cl)cc1C(=O)c1ccccc1 [drawing 31] |  |  |  |  | ED50 [1, 5]: 2.3 mg/kg
11 | CN(C(=O)CNCc1ccccc1)c1ccc(Cl)cc1C(=O)c1ccccc1 [drawing 35] |  |  |  |  | ED50 [1, 5]: 3 mg/kg
12 | CN(C(=O)Cn1ccnc1)c1ccc(Cl)cc1C(=O)c1ccccc1 [Example 23, N-Methyl-2-imidazolyl-(2-benzoyl-4-chloro)-acetanilide] |  |  | 500 | 1000 | solubility in dimethyl formamide (Solubility): 20%; solubility in ethanol (Solubility): 10%; solubility in water (in words) (Solubility): insoluble
13 | CN(C(=O)CN(C)C1CCCCC1)c1ccc(Cl)cc1C(=O)c1ccccc1 [Example 20, N,N'-Dimethyl-N'-cyclohexyl-(2-benzoyl-4-chloro)-glycinanilide hydrochloride] | 1.9 | 20 | > 500 | > 1000 | 
14 | CN(C(=O)CN1CCCCC1)c1ccc(Cl)cc1C(=O)c1ccccc1 [Example 17, N-Methyl-2-piperidino-(2'-benzoyl-4'-chloro)-acetanilide hydrochloride] |  | 500 |  |  | 
15 | CC(CNCC(=O)N(C)c1ccc(Cl)cc1C(=O)c1ccccc1)c1ccccc1 (centres unmarked) |  |  |  |  | ED50 [1, 5]: 2.9 mg/kg
16 | CN(CCO)CC(=O)Nc1ccc(Cl)cc1C(=O)c1ccccc1 [R = H, R1 = CH3, R2 = CH2CH2 OH, reference compound] |  |  |  |  | Activity antipentetrazol (VO), at 10 mg ([1]; prior art comparison, VO): inactive
17 | CN(C)CC(=O)Nc1ccc(Cl)cc1C(=O)c1ccccc1 [R = H, R1 = CH3, R2 = CH3, reference compound] |  |  |  |  | Activity antipentetrazol (VO), at 10 mg ([1]; prior art comparison, VO): inactive

Row | Structure (SMILES) | ED50 [1, 3] [mg/kg] | solubility (Solubility) [mg/mL] | LD50 [2, 4] [mg/kg] | LD50 ([2]; oral, read-out: DL50 oral) [mg/kg] | other results
18 | CNCC(=O)N(C)c1ccc(Cl)cc1C(=O)c1ccccc1 [Example 3, N,N'-Dimethyl-(2-benzoyl-4-chloro)-glycinanilide hydrochloride] |  | 150 |  |  | ED50 [1, 5]: 1.7 mg/kg
19 | CC(CNCC(=O)Nc1ccc(Cl)cc1C(=O)c1ccccc1)c1ccccc1 (centres unmarked) [reference compound] |  |  |  |  | Activity antipentetrazol (VO), at 10 mg ([1]; prior art comparison, VO): inactive
20 | CN(C(=O)CNC(C)(C)CO)c1ccc(Cl)cc1C(=O)c1ccccc1 [Example 12, N-Methyl-N'-(1',1'-dimethyl-2'-hydroxyethyl)-(2-benzoyl-4-chloro)-glycinanilide] |  |  |  |  | solubility in dimethyl formamide (Solubility): 25%; solubility in ethanol (Solubility): 10%; solubility in water (in words) (Solubility): insoluble
21 | C=CCNCC(=O)N(C)c1ccc(Cl)cc1C(=O)c1ccccc1 [Example 7, N-methyl-N'-allyl-(2-benzoyl-4-chloro)-glycinanilide hydrochloride] | 1.9 | 30 | 500 | > 1000 | 
22 | C#CC1(NCC(=O)N(C)c2ccc(Cl)cc2C(=O)c2ccccc2)CCCCC1 [Example 9, N-Methyl-N'-(1'-ethinyl-cyclohexyl)-(2-benzoyl-4-chloro)-glycinanilide hydrochloride] | 3.9 |  | 200 | 560 | solubility in dimethyl formamide (Solubility): 2%; solubility in ethanol (Solubility): 3%; solubility in water (in words) (Solubility): insoluble
23 | CNCC(=O)Nc1ccc(Cl)cc1C(=O)c1ccccc1 [R = H, R1 = H, R2 = CH3, reference compound] |  |  |  |  | Activity antipentetrazol (VO), at 10 mg ([1]; prior art comparison, VO): inactive
24 | CC(C)N(CC(=O)N(C)c1ccc(Cl)cc1C(=O)c1ccccc1)C1CCCCC1 [Example 21, N-Methyl-N'-isopropyl-N'-cyclohexyl-(2-benzoyl-4-chloro)glycinanilide hydrochloride] | 2.2 | 50 | 500 | 1000 | 
25 | O=C(CNCc1ccccc1)Nc1ccc(Cl)cc1C(=O)c1ccccc1 [reference compound] |  |  |  |  | Activity antipentetrazol (VO), at 10 mg ([1]; prior art comparison, VO): inactive
26 | COCCNCC(=O)N(C)c1ccc(Cl)cc1C(=O)c1ccccc1 [Example 5, N-Methyl-N'-(2'-methoxyethyl)-(2-benzoyl-4-chloro)-glycinanilide hydrochloride] | 2.6 | 500 | 300 | 750 | 
27 | CN(C(=O)CNCc1ccccc1)c1ccc(Cl)cc1C(=O)c1ccccc1 [Example 6, N-Methyl-N'-benzyl-(2-benzoyl-4-chloro)-glycinanilide hydrochloride] |  | 25 |  |  | 
28 | CC(C)NCC(=O)N(C)c1ccc(Cl)cc1C(=O)c1ccccc1 [Example 1, N-Isopropyl-N'-methyl-(2-benzoyl-4-chloro)-glycinanilide hydrochloride] |  | 10 |  |  | 
29 | C#CC(CC)(CC)NCC(=O)N(C)c1ccc(Cl)cc1C(=O)c1ccccc1 [Example 8, N-Methyl-N'-(1',1'-diethyl-propargyl)-(2-benzoyl-4-chloro)-glycinanilide hydrochloride] | 4.1 |  | 400 | 1000 | solubility in dimethyl formamide (Solubility): 1%; solubility in ethanol (Solubility): 1%; solubility in water (in words) (Solubility): insoluble
30 | C=CCNCC(=O)Nc1ccc(Cl)cc1C(=O)c1ccccc1 [R = H, R1 = H, R2 = CH2CHCH2, reference compound] |  |  |  |  | Activity antipentetrazol (VO), at 10 mg ([1]; prior art comparison, VO): inactive
31 | C#CC(C)(C)NCC(=O)N(C)c1ccc(Cl)cc1C(=O)c1ccccc1 [Example 2, N-Methyl-N'-1,1-dimethyl-propargyl-(2-benzoyl-4-chloro)-glycinanilide hydrochloride] | 1.5 | 10 | 450 | > 1000 | 
32 | COCCNCC(=O)Nc1ccc(Cl)cc1C(=O)c1ccccc1 [R = H, R1 = H, R2 = CH2CH2OCH3, reference compound] |  |  |  |  | Activity antipentetrazol (VO), at 10 mg ([1]; prior art comparison, VO): inactive
33 | CCC(CO)(CO)NCC(=O)N(C)c1ccc(Cl)cc1C(=O)c1ccccc1 [Example 13, N-Methyl-N'-(1'-ethyl-1'-hydroxymethyl-2'-hydroxyethyl)-(2-benzoyl-4-chloro)-glycinanilide hydrochloride] |  | 500 |  |  | 
